In patent US8778913B2, “Antimicrobial compositions for treating microbial infections” (priority 2006, dated 2014):
Read-outs that look alike come from different tables or passages of the source.

Key:
[1] = system: S. aureus; assay: S. aureus growth inhibition in culture; assay type: cell-based, Staphylococcus aureus
Experimental: The compound of Formula III was prepared as described in Magnin et al., α-Phosphonosulfonic acids: Potent and selective inhibitors of squalene synthase, J. Med. Chem. 39 (1996) 657-660, and tested in S. aureus growth inhibition and in pigment formation.
(§1) Wild-type S. aureus strain (Pig1), isolated from the skin of a child with atopic dermatitis. Streptococcus pyogenes strain 5448 is a well-characterized serotype M1T1 clinical isolate. CD1 and C57Bl/6 mice were purchased from Charles River. The gp91^Phos−/− mice were bred at the Veteran's Administration Medical Center, San Diego and maintained on trimethoprim/sulfamethoxazole prophylaxis until 3 d prior to experiments. S. aureus and S. pyogenes were propagated in Todd-Hewitt broth (THB) or on THB agar (Difco, Detroit, Mich.). Unless otherwise indicated, all experiments were performed with bacteria derived from S. aureus 36-48 h stationary phase cultures or S. pyogenes 24 h stationary phase cultures, a point when pigmentation phenotypes were readily apparent.
Inhibition of staphyloxanthin biosynthesis by formula III could represent a purely virulence factor-based therapy for S. aureus infection. […]

[2] = system: SF-268; assay: Growth of human cell line SF-268; assay type: cell-based
Experimental: (§2) Inhibition of staphyloxanthin biosynthesis by formula III could represent a purely virulence factor-based therapy for S. aureus infection. […] However, after incubation with 100 μM formula III, the resulting non-pigmented S. aureus were ˜15-fold more susceptible to killing by 1.5% hydrogen peroxide and ˜4-fold less able to survive in freshly isolated human whole blood than were normally pigmented S. aureus treated with PBS control. As expected, formula III had no effect on the growth of three human cell lines (MCF-7, NCI-H460 and SF-268) since there only cholesterol biosynthesis is targeted, and cholesterol is generally abundant in serum (or diet).

[3] = system: staphyloxanthin biosynthesis; assay: S. aureus pigment (staphyloxanthin) formation; assay type: cell-based, Staphylococcus aureus; settings: for IC50: Staphylococcus aureus
Source text: as §1
A series of known SQS inhibitors were tested for inhibition of staphyloxanthin biosynthesis.

[4] = system: S. aureus; assay: In vivo mouse model of S. aureus skin infection
Experimental: Ten to 16 week old CD-1 or gp91^Phox−/− mice were injected subcutaneously in one flank (chosen randomly) with the bacterial test strain, and simultaneously in the opposite flank with a different strain for direct comparison. Bacterial cultures were washed, diluted and resuspended in PBS mixed 1:1 with sterile Cytodex beads (Amersham) at the specified inoculum, following an established protocol for generating localized S. aureus and S. pyogenes subcutaneous infection. Lesion size, as assessed by the maximal length×width of the developing ulcers, was recorded daily. Cumulative lesion size represents the total sum of lesion sizes from all animals in each treatment group on a given day. At day 8 (S. aureus) or day 5 (S. pyogenes), animals were euthanized, skin lesions excised, homogenized in PBS, and plated on THA for quantitative culture.

[5] = system: NCI-H460; assay: Growth of human cell line NCI-H460; assay type: cell-based
Experimental: as §2

[6] = system: S. aureus; assay: Whole blood killing assay; assay type: cell-based, Staphylococcus aureus
Experimental: Bacteria were washed twice in PBS, diluted to an inoculum of 10^4 cfu in 25 μl PBS, and mixed with 75 μl of freshly drawn human or mouse blood in heparinized tubes. The tubes were incubated at 37° C. for 4 h with agitation, at which time dilutions were plated on THA for enumeration of surviving cfu.

[7] = system: S. aureus; assay: Hydrogen peroxide susceptibility assay; assay type: cell-based, Staphylococcus aureus; settings: after incubation with 100 μM; vs PBS control
Experimental: (§3) Tests for susceptibility to oxidants were performed either in PBS (S. aureus) or THB (S. pyogenes). Hydrogen peroxide (H2O2) was added to 1.5% final concentration, […] bacteria incubated at 37° C. for 1 h, then 1,000 U/ml of catalase (Sigma) added to quench residual H2O2. Dilutions were plated on THA for enumeration of surviving cfu. For the singlet oxygen assay, 10^8 S. aureus or 4×10^8 S. pyogenes were incubated at 37° C. in individual wells of a 24-well culture plate in the presence or absence of 1-6 μg/ml methylene blue and situated exactly 10 cm from a 100-watt light source. Bacterial viability was assessed after 1-3 h by plating dilutions on THA.

[8] = system: S. aureus; assay: Systemic (intraperitoneal) S. aureus challenge in mice; assay type: in vivo, mouse
Experimental: Here cfu counts are measured in the kidneys.
0/6 mice treated with the compound of Formula III had detectable bacteria in either organ.
Given the in vitro abilities of formula III treatment to increase S. aureus susceptibility to oxidants and blood (neutrophil-mediated) clearance, in vivo testing was performed. Under intraperitoneal challenge one group of mice (n=14) was treated with […] b.i.d. (days −1, 0, 1 and 2), and a second group (n=13) with equivalent volume injections of PBS control.

[9] = system: MCF-7; assay: Growth of human cell line MCF-7; assay type: cell-based
Experimental: as §2

[10] = target: T1, CrtM (dehydrosqualene synthase) (Staphylococcus aureus, UniProt A9JQL9); assay: Recombinant CrtM enzyme inhibition; assay type: biochemical, S. aureus
T1 construct: made in house; host or cells: E. coli
T1 sequence (A9JQL9 1-287): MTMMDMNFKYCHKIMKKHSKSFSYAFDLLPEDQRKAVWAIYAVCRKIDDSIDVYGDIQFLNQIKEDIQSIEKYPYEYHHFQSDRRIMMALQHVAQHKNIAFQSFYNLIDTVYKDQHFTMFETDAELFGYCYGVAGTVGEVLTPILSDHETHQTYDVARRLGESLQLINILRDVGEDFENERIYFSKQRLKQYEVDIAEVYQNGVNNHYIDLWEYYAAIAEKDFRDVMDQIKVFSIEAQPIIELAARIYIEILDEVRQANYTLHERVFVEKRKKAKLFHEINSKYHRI
Experimental: A series of known SQS inhibitors were tested for inhibition of staphyloxanthin biosynthesis. […] Since Formula III (and its analogs) have been advanced through Phase II human clinical trials as cholesterol-lowering agents, the agent is clearly of potential interest as a new lead compound inhibiting staphyloxanthin virulence factor formation in S. aureus.

[11] = system: S. aureus; assay: Singlet oxygen susceptibility assay; assay type: cell-based, Staphylococcus aureus
Experimental: as §3

[12] = system: staphyloxanthin biosynthesis; settings: earlier report; cited from earlier work

O=P([O-])([O-])C(CCCc1cccc(Oc2ccccc2)c1)S(=O)(=O)[O-].[K+].[K+].[K+] (racemic) [Formula III]
effect on cell growth ([1]; S. aureus growth inhibition): no detectable effect
effect on S. aureus growth characteristics or survival in culture ([1]; up to 2 mM, through 48 hr): did not affect
effect on growth of human cell line [2]: no effect
effect on pigment formation [3]: potent effect
IC50 ([3]; 48 h, after 2 days at 37° C. with shaking (Table 1 title), read-out: IC50 (concentration for 50% pigment formation)): ~2000 nM
IC50 ([3]; read-out: IC50, inhibition of staphyloxanthin biosynthesis): ~1000 nM
lesion size ([4]; 200 μM (FIG. 9A)): major decrease
ill effects in mice ([4]; 200 μM or 1000 μM): no apparent ill effects
lesion size ([4]; 1000 μM (FIG. 9B)): major decrease
effect on growth of human cell line [5]: no effect
ED50, whole blood killing of S. aureus ([6]; FIG. 8): ~20000 nM
decrease in ability to survive in freshly isolated human whole blood ([6]; after incubation with 100 μM, vs PBS control): ~4 fold
enhancement in whole blood killing of S. aureus ([6]; at 40 μM (FIG. 8)): ~3 fold
increase in susceptibility to killing by 1.5% hydrogen peroxide [7]: ~15 fold
mice with cfus below the detection threshold (kidneys) ([8]; 0.5 mg b.i.d. days −1, 0, 1, 2, sacrifice at 72 h): 8/13
S. aureus bacterial counts in the kidneys vs control group ([8]; 0.5 mg b.i.d. days −1, 0, 1, 2, sacrifice at 72 h, P<0.001): significantly lower
mice with detectable bacteria in the spleen ([8]; after 4 days (FIG. 12A)): 0/6
mice with detectable bacteria in the kidneys ([8]; after 4 days (FIG. 12B)): 0/6
effect on growth of human cell line [9]: no effect
IC50 ([10]; S. aureus enzyme expressed in E. coli): 600 nM
Ki ([10]; corresponding to the IC50): ~1.5 nM

CCCC(C(=O)OCCN(CC)CC)(c1ccccc1)c1ccccc1 [SKF 525-A, 2-diethylaminoethyl-2,2-diphenyl-valerate, reference compound]
pigment production in WT S. aureus ([3]; WT strain grown in presence of agent (FIG. 4a)): dose-dependent decrease
ability of WT S. aureus to survive in human whole blood ([6]; WT S. aureus (FIG. 4c)): decrease
effect on blood survival of ΔCrtM mutant ([6]; ΔCrtM mutant control): no significant effects
susceptibility to singlet oxygen killing ([11]; WT S. aureus (FIG. 4b)): dose-dependent increase
effect on oxidant susceptibility of ΔCrtM mutant ([11]; ΔCrtM mutant control): no significant effects
pigment formation in S. aureus (previously shown) [12]: inhibit pigment formation
